Assay results as given in BigSolDB 2.1.

COC(=O)/C=C(\C)N[C@@H](C(=O)[O-])c1ccc(O)cc1.[K+]
solubility (mole fraction) (in 2-pentanol, 293.25 K): 6.22e-05
solubility (mole fraction) (in 2-pentanol, 298.28 K): 7.86e-05
solubility (mole fraction) (in 2-pentanol, 303.35 K): 9.99e-05
solubility (mole fraction) (in 2-pentanol, 308.19 K): 0.000117
solubility (mole fraction) (in 2-pentanol, 313.15 K): 0.000141
solubility (mole fraction) (in 2-pentanol, 318.29 K): 0.000169
solubility (mole fraction) (in 2-pentanol, 323.15 K): 0.000196
solubility (mole fraction) (in 2-pentanol, 328.34 K): 0.000233
solubility (mole fraction) (in 2-pentanol, 333.05 K): 0.000267
solubility (mole fraction) (in 2-pentanol, 338.24 K): 0.00031
solubility (mole fraction) (in 2-pentanol, 343.26 K): 0.000354
solubility (mole fraction) (in ethanol, 293.25 K): 0.000405
solubility (mole fraction) (in ethanol, 298.26 K): 0.000437
solubility (mole fraction) (in ethanol, 303.25 K): 0.000478
solubility (mole fraction) (in ethanol, 308.19 K): 0.000519
solubility (mole fraction) (in ethanol, 313.09 K): 0.00056
solubility (mole fraction) (in ethanol, 318.26 K): 0.000629
solubility (mole fraction) (in ethanol, 323.11 K): 0.000681
solubility (mole fraction) (in ethanol, 328.18 K): 0.000753
solubility (mole fraction) (in ethanol, 333.41 K): 0.000834
solubility (mole fraction) (in ethanol, 338.31 K): 0.000916
solubility (mole fraction) (in ethanol, 343.35 K): 0.00104
solubility (mole fraction) (in isopropanol, 293.25 K): 5.74e-05
solubility (mole fraction) (in isopropanol, 298.23 K): 6.38e-05
solubility (mole fraction) (in isopropanol, 303.05 K): 7.22e-05
solubility (mole fraction) (in isopropanol, 308.41 K): 8.4e-05
solubility (mole fraction) (in isopropanol, 313.15 K): 9.66e-05
solubility (mole fraction) (in isopropanol, 318.26 K): 0.000112
solubility (mole fraction) (in isopropanol, 323.15 K): 0.00013
solubility (mole fraction) (in isopropanol, 328.19 K): 0.00015
solubility (mole fraction) (in isopropanol, 333.35 K): 0.000173
solubility (mole fraction) (in isopropanol, 338.27 K): 0.000198
solubility (mole fraction) (in isopropanol, 343.25 K): 0.000225
solubility (mole fraction) (in methanol, 293.15 K): 0.00346
solubility (mole fraction) (in methanol, 298.22 K): 0.0037
solubility (mole fraction) (in methanol, 303.15 K): 0.00396
solubility (mole fraction) (in methanol, 308.19 K): 0.00424
solubility (mole fraction) (in methanol, 313.35 K): 0.00454
solubility (mole fraction) (in methanol, 318.27 K): 0.00485
solubility (mole fraction) (in methanol, 323.35 K): 0.00519
solubility (mole fraction) (in methanol, 328.16 K): 0.00552
solubility (mole fraction) (in methanol, 333.35 K): 0.006
solubility (mole fraction) (in n-butanol, 293.15 K): 9.97e-05
solubility (mole fraction) (in n-butanol, 298.31 K): 0.00011
solubility (mole fraction) (in n-butanol, 302.95 K): 0.000122
solubility (mole fraction) (in n-butanol, 308.19 K): 0.000139
solubility (mole fraction) (in n-butanol, 312.95 K): 0.000158
solubility (mole fraction) (in n-butanol, 318.16 K): 0.000181
solubility (mole fraction) (in n-butanol, 323.25 K): 0.000207
solubility (mole fraction) (in n-butanol, 328.29 K): 0.000237
solubility (mole fraction) (in n-butanol, 333.17 K): 0.000268
solubility (mole fraction) (in n-butanol, 338.32 K): 0.000304
solubility (mole fraction) (in n-butanol, 342.95 K): 0.000339
solubility (mole fraction) (in n-pentanol, 293.05 K): 8.48e-05
solubility (mole fraction) (in n-pentanol, 298.25 K): 0.000102
solubility (mole fraction) (in n-pentanol, 303.25 K): 0.000119
solubility (mole fraction) (in n-pentanol, 308.19 K): 0.000134
solubility (mole fraction) (in n-pentanol, 313.07 K): 0.000152
solubility (mole fraction) (in n-pentanol, 318.26 K): 0.00017
solubility (mole fraction) (in n-pentanol, 323.25 K): 0.00019
solubility (mole fraction) (in n-pentanol, 328.17 K): 0.000209
solubility (mole fraction) (in n-pentanol, 333.25 K): 0.000226
solubility (mole fraction) (in n-pentanol, 338.13 K): 0.000252
solubility (mole fraction) (in n-pentanol, 343.35 K): 0.000279
solubility (mole fraction) (in n-propanol, 293.15 K): 0.000178
solubility (mole fraction) (in n-propanol, 298.23 K): 0.000191
solubility (mole fraction) (in n-propanol, 303.05 K): 0.000206
solubility (mole fraction) (in n-propanol, 308.18 K): 0.000228
solubility (mole fraction) (in n-propanol, 313.05 K): 0.000256
solubility (mole fraction) (in n-propanol, 318.29 K): 0.00028
solubility (mole fraction) (in n-propanol, 323.05 K): 0.000306
solubility (mole fraction) (in n-propanol, 328.21 K): 0.000345
solubility (mole fraction) (in n-propanol, 333.25 K): 0.000382
solubility (mole fraction) (in n-propanol, 338.34 K): 0.000427
solubility (mole fraction) (in n-propanol, 343.35 K): 0.000476
solubility (mole fraction) (in sec-butanol, 293.35 K): 3.51e-05
solubility (mole fraction) (in sec-butanol, 298.24 K): 4.38e-05
solubility (mole fraction) (in sec-butanol, 303.05 K): 5.87e-05
solubility (mole fraction) (in sec-butanol, 308.17 K): 6.64e-05
solubility (mole fraction) (in sec-butanol, 313.05 K): 8.11e-05
solubility (mole fraction) (in sec-butanol, 318.36 K): 9.62e-05
solubility (mole fraction) (in sec-butanol, 323.23 K): 0.000113
solubility (mole fraction) (in sec-butanol, 328.26 K): 0.000132
solubility (mole fraction) (in sec-butanol, 333.15 K): 0.000151
solubility (mole fraction) (in sec-butanol, 338.28 K): 0.000174
solubility (mole fraction) (in sec-butanol, 343.23 K): 0.000197
